Columns and labels:
[1] = oral administration; cited from earlier work
[2] = Twelve months storage, THC degradation to Cannabinol by gas chromatography; conditions: twelve months storage at −10 °C in darkness, 5 ml screw top bottles
Text: Extract was concentrated by vacuum evaporation and percent of THC degradation quantitated by gas chromatograpy.

[3] = intranasally at 1.0 to 1.3 mg/kg in rats; cited from earlier work

**Q.** Which results are given for `CCCCCc1cc(O)c2c(c1)OC(C)(C)[C@@H]1CCC(C)=C[C@@H]21` [THC, Delta-9-tetrahydrocannabinol]?
**A.** oral dose reaching the circulation unchanged [1]: 10%; percent degraded to Cannabinol [2]: 22.6%; analgesic response, time post administration [3]: 15 min; duration of analgesic response [3]: 120 min
